Measured values taken from patent US6274715A, “Tricyclic erythromycin derivatives” (priority 1997, dated 2001).
Converted amounts (≈) assume the structure as drawn.

How the values were obtained:
Type in all cases: cell-based
[1] = tested on: KLEBSIELLA PNEUMONIAE ATCC 8045; assay: In vitro antibacterial activity, MIC, BHI agar dilution; conditions: K. pneumoniae ATCC 8045, unit assumed
ESCHERICHIA COLI DC-2 = assay: as above; conditions: E. coli DC-2, unit assumed
[2] = tested on: STAPHYLOCOCCUS AUREUS CMX 642A; assay: as above; conditions: S. aureus CMX 642A, unit assumed
[3] = tested on: PSEUDOMONAS AERUGINOSA BMH10; assay: as above; conditions: P. aeruginosa BMH10, unit assumed
[4] = tested on: PSEUDOMONAS AERUGINOSA 5007; assay: as above; conditions: P. aeruginosa 5007, unit assumed
[5] = tested on: STAPHYLOCOCCUS AUREUS ATCC 6538P; assay: as above; conditions: S. aureus ATCC 6538P, 35-37° C., 20 to 24 hours, unit assumed
[6] = tested on: PSEUDOMONAS AERUGINOSA DPHD-2862; assay: as above; conditions: P. aeruginosa DPHD-2862, unit assumed
[7] = tested on: STAPHYLOCOCCUS EPIDERMIDIS 3519; conditions: S. epidermidis 3519; BHI agar; unit assumed
CANDIDA ALBICANS CCH 442 = assay: In vitro antibacterial activity, MIC, BHI agar dilution; conditions: C. albicans CCH 442, unit assumed
ESCHERICHIA COLI SS = assay: as above; conditions: E. coli SS, unit assumed
PSEUDOMONAS CEPACIA 296I = assay: as above; conditions: P. cepacia 296I, unit assumed
[8] = tested on: STREPTOCOCCUS PYOGENES PIU 2548; assay: as above; conditions: S. pyogenes PIU 2548, unit assumed
[9] = tested on: STAPHYLOCOCCUS AUREUS NCTC10649M; assay: as above; conditions: S. aureus NCTC10649M, unit assumed
[10] = tested on: STREPTOCOCCUS PYOGENES EES61; assay: as above; conditions: S. pyogenes EES61, unit assumed
[11] = tested on: STAPHYLOCOCCUS AUREUS 1775; assay: as above; conditions: S. aureus 1775, unit assumed
[12] = tested on: ACINETOBACTER CALCOACETICUS CMX 669; assay: as above; conditions: A. calcoaceticus CMX 669, unit assumed
ESCHERICHIA COLI JUHL = conditions: E. coli JUHL; BHI agar; unit assumed
ESCHERICHIA COLI H560 = assay: In vitro antibacterial activity, MIC, BHI agar dilution; conditions: E. coli H560, unit assumed
[13] = tested on: PSEUDOMONAS AERUGINOSA K799/61; assay: as above; conditions: P. aeruginosa K799/61, unit assumed
[14] = tested on: MYCOBACTERIUM SMEGMATIS ATCC 114; assay: as above; conditions: M. smegmatis ATCC 114, unit assumed
[15] = tested on: STAPHYLOCOCCUS AUREUS CMX 553; assay: as above; conditions: S. aureus CMX 553, unit assumed
[16] = tested on: ENTEROBACTER AEROGENES ATCC 13048; assay: as above; conditions: E. aerogenes ATCC 13048, unit assumed
[17] = tested on: PROVIDENCIA STUARTII CMX 640; conditions: P. stuartii CMX 640; BHI agar; unit assumed
[18] = tested on: PSEUDOMONAS AERUGINOSA DPHD-5263; assay: In vitro antibacterial activity, MIC, BHI agar dilution; conditions: P. aeruginosa DPHD-5263, unit assumed
ESCHERICHIA COLI KNK 437 = conditions: E. coli KNK 437; BHI agar; unit assumed
[19] = tested on: STAPHYLOCOCCUS AUREUS A5177; assay: In vitro antibacterial activity, MIC, BHI agar dilution; conditions: S. aureus A5177, unit assumed
M[…] ATCC 4698 = assay: as above; conditions: M. luteus ATCC 4698, unit assumed
Procedure, shortened: (§1)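 MIC was read visually as the lowest drug level with no growth, a slight haze or sparsely isolated colonies relative to a compound-free growth control. Organisms were spotted at 1:100 dilution (1:10 for slow-growing strains) onto Brain Heart Infusion agar containing serial compound dilutions and incubated 20 to 24 hours at 35-37° C.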

EN[…] ATCC 8043 = assay: as above; conditions: E. faecium ATCC 8043, unit assumed
Procedure, shortened: as §1

STR[…] 508 = assay: as above; conditions: S. agalactiae CMX 508, unit assumed
Procedure, shortened: as §1

M[…] ATCC 9341 = assay: as above; conditions: M. luteus ATCC 9341, unit assumed
Procedure, shortened: as §1

[20] = tested on: STAPHYLOCOCCUS AUREUS A-5278; assay: as above; conditions: S. aureus A-5278, unit assumed
[21] = tested on: STREPTOCOCCUS PYOGENES 930; assay: as above; conditions: S. pyogenes 930, unit assumed
[22] = tested on: PSEUDOMONAS AERUGINOSA K799/WT; assay: as above; conditions: P. aeruginosa K799/WT, unit assumed
[23] = tested on: STREPTOCOCCUS BOVIS A-5169; assay: as above; conditions: S. bovis A-5169, unit assumed

CC[C@H]1OC(=O)[C@H](C)C(=O)[C@H](C)[C@@H](O[C@@H]2O[C@H](C)C[C@H](N(C)C)[C@H]2O)[C@](C)(OC)C[C@@H](C)C2=N[C@@H]3CCCC[C@@H]3N3C(=O)O[C@@]1(C)[C@H]3[C@H]2C [Example 13]
MIC [1]: 100 µg/mL (≈ 145 µM) | MIC (ESCHERICHIA COLI DC-2): 100 µg/mL (≈ 145 µM) | MIC [2]: 0.78 µg/mL (≈ 1.13 µM) | MIC [3]: > 100 µg/mL | MIC [4]: > 100 µg/mL | MIC [5]: 0.78 µg/mL (≈ 1.13 µM) | MIC [6]: > 100 µg/mL | MIC [7]: 0.78 µg/mL (≈ 1.13 µM) | MIC (CANDIDA ALBICANS CCH 442): 3.1 µg/mL (≈ 4.48 µM) | MIC (ESCHERICHIA COLI SS): 0.39 µg/mL (≈ 0.564 µM) | MIC (PSEUDOMONAS CEPACIA 296I): > 100 µg/mL | MIC [8]: 0.2 µg/mL (≈ 0.289 µM) | MIC [9]: 0.78 µg/mL (≈ 1.13 µM) | MIC [10]: 0.02 µg/mL (≈ 0.0289 µM) | MIC [11]: > 100 µg/mL | MIC [12]: > 100 µg/mL | MIC (ESCHERICHIA COLI JUHL): 50 µg/mL (≈ 72.3 µM) | MIC (ESCHERICHIA COLI H560): 50 µg/mL (≈ 72.3 µM) | MIC [13]: 3.1 µg/mL (≈ 4.48 µM) | MIC [14]: 0.39 µg/mL (≈ 0.564 µM) | MIC [15]: 0.78 µg/mL (≈ 1.13 µM) | MIC [16]: 100 µg/mL (≈ 145 µM) | MIC [17]: > 100 µg/mL | MIC [18]: > 100 µg/mL | MIC (ESCHERICHIA COLI KNK 437): 100 µg/mL (≈ 145 µM) | MIC [19]: 0.78 µg/mL (≈ 1.13 µM) | MIC (M[…] ATCC 4698): 0.78 µg/mL (≈ 1.13 µM) | MIC (EN[…] ATCC 8043): 0.1 µg/mL (≈ 0.145 µM) | MIC (STR[…] 508): 0.02 µg/mL (≈ 0.0289 µM) | MIC (M[…] ATCC 9341): 0.2 µg/mL (≈ 0.289 µM) | MIC [20]: > 100 µg/mL | MIC [21]: > 100 µg/mL | MIC [22]: > 100 µg/mL

CC[C@H]1OC(=O)[C@H](C)C(=O)[C@H](C)[C@@H](O[C@@H]2O[C@H](C)C[C@H](N(C)C)[C@H]2O)[C@](C)(OC)C[C@@H](C)C2=N[C@@H]3CN(C(=O)OCc4ccccc4)C[C@@H]3N3C(=O)O[C@@]1(C)[C@H]3[C@H]2C [Example 20]
MIC [1]: > 100 µg/mL | MIC (ESCHERICHIA COLI DC-2): > 100 µg/mL | MIC [2]: 1.56 µg/mL (≈ 1.92 µM) | MIC [3]: > 100 µg/mL | MIC [4]: > 100 µg/mL | MIC [6]: > 100 µg/mL | MIC [7]: 0.78 µg/mL (≈ 0.959 µM) | MIC (CANDIDA ALBICANS CCH 442): > 100 µg/mL | MIC (ESCHERICHIA COLI SS): 3.1 µg/mL (≈ 3.81 µM) | MIC (PSEUDOMONAS CEPACIA 296I): > 100 µg/mL | MIC [8]: 0.78 µg/mL (≈ 0.959 µM) | MIC [23]: 0.1 µg/mL (≈ 0.123 µM) | MIC [10]: 0.005 µg/mL (≈ 0.00615 µM) | MIC [11]: > 100 µg/mL | MIC [12]: 100 µg/mL (≈ 123 µM) | MIC (ESCHERICHIA COLI JUHL): > 100 µg/mL | MIC (ESCHERICHIA COLI H560): 100 µg/mL (≈ 123 µM) | MIC [13]: 6.2 µg/mL (≈ 7.63 µM) | MIC [14]: 3.1 µg/mL (≈ 3.81 µM) | MIC [15]: 1.56 µg/mL (≈ 1.92 µM) | MIC [16]: > 100 µg/mL | MIC [17]: > 100 µg/mL | MIC [18]: > 100 µg/mL | MIC (ESCHERICHIA COLI KNK 437): > 100 µg/mL | MIC [19]: 0.78 µg/mL (≈ 0.959 µM) | MIC (M[…] ATCC 4698): 0.78 µg/mL (≈ 0.959 µM) | MIC (EN[…] ATCC 8043): 0.39 µg/mL (≈ 0.48 µM) | MIC (STR[…] 508): 0.1 µg/mL (≈ 0.123 µM) | MIC (M[…] ATCC 9341): 0.39 µg/mL (≈ 0.48 µM) | MIC [20]: > 100 µg/mL | MIC [21]: > 100 µg/mL | MIC [22]: > 100 µg/mL
